Results: article PMC4516653 (European journal of pharmaceutical sciences : official …, 2015)
Several values for one entry are separate records, joined by “and”; a condition that tells them apart may be missing. Equal values may be shown once. Read-outs that look alike come from different tables or passages of the source.

Assays:
[1] = target: T1, CYP 2A6 (Homo sapiens, UniProt P11509); experiment: CYP inhibition assay in human liver microsomes; type: in vitro ADME
T1 sequence (P11509 1-494): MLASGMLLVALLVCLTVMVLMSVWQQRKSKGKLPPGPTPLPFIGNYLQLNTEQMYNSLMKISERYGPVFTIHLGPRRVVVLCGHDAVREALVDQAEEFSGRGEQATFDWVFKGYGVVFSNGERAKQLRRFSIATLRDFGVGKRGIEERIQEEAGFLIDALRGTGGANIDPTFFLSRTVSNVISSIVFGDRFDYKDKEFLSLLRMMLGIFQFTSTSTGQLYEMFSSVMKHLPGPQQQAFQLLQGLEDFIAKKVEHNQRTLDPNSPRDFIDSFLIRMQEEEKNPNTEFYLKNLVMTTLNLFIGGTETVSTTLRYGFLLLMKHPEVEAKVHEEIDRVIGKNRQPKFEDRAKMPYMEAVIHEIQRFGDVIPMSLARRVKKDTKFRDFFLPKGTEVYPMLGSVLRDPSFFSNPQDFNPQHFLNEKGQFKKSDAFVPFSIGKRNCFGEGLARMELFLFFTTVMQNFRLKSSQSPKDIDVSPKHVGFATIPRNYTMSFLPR

[2] = target: CYP 2D6 (Homo sapiens, UniProt P10635); experiment: CYP inhibition assay in human liver microsomes; type: in vitro ADME
[3] = target: T2, CYP 2B6 (Homo sapiens, UniProt P20813); experiment: CYP inhibition assay in human liver microsomes; type: in vitro ADME; conditions: IC50 CYP 2B6, human liver microsomes; duplicate incubations, both values printed
T2 sequence (P20813 1-491): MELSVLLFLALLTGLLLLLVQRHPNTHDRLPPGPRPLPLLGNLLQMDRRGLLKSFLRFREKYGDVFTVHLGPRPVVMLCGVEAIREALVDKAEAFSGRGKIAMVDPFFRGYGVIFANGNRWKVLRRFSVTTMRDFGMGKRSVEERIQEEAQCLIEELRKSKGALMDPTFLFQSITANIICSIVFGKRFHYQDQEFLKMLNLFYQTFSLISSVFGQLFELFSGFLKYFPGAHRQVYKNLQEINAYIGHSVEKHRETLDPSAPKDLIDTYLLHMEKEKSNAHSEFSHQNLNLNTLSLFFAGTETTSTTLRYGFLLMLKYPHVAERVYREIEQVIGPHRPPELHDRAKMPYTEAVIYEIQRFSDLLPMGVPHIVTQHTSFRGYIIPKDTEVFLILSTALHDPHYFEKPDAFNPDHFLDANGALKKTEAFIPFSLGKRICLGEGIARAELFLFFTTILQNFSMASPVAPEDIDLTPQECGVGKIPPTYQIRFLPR

[4] = target: T3, CYP 1A2 (Homo sapiens, UniProt P05177); experiment: CYP inhibition assay in human liver microsomes; type: in vitro ADME
T3 sequence (P05177 1-516): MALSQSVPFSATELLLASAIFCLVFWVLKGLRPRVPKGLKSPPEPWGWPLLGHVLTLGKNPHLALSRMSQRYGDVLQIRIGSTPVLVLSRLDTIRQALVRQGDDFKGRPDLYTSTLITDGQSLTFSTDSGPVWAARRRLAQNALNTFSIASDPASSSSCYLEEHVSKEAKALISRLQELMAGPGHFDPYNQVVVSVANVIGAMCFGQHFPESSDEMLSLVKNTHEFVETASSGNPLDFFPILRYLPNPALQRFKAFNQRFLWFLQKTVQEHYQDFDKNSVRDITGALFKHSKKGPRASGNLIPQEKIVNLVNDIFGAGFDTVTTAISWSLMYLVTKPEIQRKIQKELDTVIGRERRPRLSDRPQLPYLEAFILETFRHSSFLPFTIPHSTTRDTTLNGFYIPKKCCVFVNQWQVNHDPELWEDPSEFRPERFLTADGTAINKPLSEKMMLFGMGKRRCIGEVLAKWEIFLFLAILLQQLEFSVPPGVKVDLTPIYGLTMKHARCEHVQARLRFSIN

[5] = target: CYP 2E1 (Homo sapiens, UniProt P05181); experiment: CYP inhibition assay in human liver microsomes; type: in vitro ADME
[6] = target: CYP 2C9 (Homo sapiens, UniProt P11712); experiment: CYP inhibition assay in human liver microsomes; type: in vitro ADME
[7] = target: CYP3A4 (Homo sapiens, UniProt P08684); experiment: CYP inhibition assay in human liver microsomes; type: in vitro ADME; conditions: mean value given in text, HLM
[8] = target: T4, CYP 2C8 (Homo sapiens, UniProt P10632); experiment: CYP inhibition assay in human liver microsomes; type: in vitro ADME
T4 sequence (P10632 1-490): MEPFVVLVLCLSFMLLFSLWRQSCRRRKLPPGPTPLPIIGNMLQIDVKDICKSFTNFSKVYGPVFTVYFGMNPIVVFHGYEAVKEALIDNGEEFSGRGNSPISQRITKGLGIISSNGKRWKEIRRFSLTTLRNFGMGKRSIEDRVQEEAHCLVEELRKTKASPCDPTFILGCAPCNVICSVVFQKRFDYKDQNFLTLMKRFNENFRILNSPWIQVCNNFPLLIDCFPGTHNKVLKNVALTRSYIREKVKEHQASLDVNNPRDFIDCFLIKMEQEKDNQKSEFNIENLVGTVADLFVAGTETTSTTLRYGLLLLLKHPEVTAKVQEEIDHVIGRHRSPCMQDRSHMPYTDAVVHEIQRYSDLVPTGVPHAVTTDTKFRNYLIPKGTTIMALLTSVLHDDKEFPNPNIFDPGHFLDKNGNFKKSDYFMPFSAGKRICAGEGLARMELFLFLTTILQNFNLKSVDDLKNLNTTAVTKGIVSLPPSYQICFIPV

[9] = Single-dose oral PK screening of Nos with dietary ingredients; type: in vivo, male CD-1 mice
[10] = Microsomal stability assay of Nos; type: in vitro ADME, Beagle dog; conditions: Noscapine 10 μM alone; n=2
[11] = Clinical chemistry parameters after 7 days oral dosing; type: in vivo, mice; conditions: hepatic and renal serum markers
[12] = Microsomal stability assay of Nos; type: in vitro ADME, CD-1 mouse; conditions: Noscapine 10 μM alone; n=2
[13] = Repeated-dose; type: in vivo, male CD-1 mice; conditions: for AUC(0-t): AUClast
[14] = cited from earlier work
[15] = Microsomal stability assay of Nos; type: in vitro ADME, Sprague-Dawley rat; conditions: Noscapine 10 μM alone; n=2
[16] = Microsomal stability assay of Nos; type: in vitro ADME, human; conditions: Noscapine 10 μM alone; n=2
[17] = test system: UGT; experiment: In vitro UGT inhibition in mouse liver; conditions: UGT inhibition experiments, MLM and MIM, Figure 7
[18] = IC50 CYP 1A2, human liver microsomes, duplicate incubations, both values printed
[19] = IC50 CYP 2C9, human liver microsomes, duplicate incubations, both values printed
[20] = IC50 CYP 2C8, human liver microsomes, duplicate incubations, both values printed
[21] = male, CD-1, mouse, plasma, po, 50 mg/kg

Sequence of CYP 2E1 (P05181 whole entry): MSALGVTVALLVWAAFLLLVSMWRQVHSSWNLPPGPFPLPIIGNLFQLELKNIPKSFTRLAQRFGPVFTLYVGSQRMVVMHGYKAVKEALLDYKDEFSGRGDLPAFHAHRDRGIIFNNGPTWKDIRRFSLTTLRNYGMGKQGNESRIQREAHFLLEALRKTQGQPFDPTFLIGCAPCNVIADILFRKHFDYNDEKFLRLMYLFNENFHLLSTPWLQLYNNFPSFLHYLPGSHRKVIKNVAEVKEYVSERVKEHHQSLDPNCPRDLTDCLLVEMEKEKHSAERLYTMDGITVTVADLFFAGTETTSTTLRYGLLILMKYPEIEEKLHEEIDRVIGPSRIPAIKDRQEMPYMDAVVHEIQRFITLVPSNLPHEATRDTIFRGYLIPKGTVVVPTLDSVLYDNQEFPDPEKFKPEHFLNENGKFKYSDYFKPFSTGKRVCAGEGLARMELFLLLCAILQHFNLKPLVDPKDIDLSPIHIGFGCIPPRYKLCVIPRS
Sequence of CYP 2D6 (P10635 whole entry): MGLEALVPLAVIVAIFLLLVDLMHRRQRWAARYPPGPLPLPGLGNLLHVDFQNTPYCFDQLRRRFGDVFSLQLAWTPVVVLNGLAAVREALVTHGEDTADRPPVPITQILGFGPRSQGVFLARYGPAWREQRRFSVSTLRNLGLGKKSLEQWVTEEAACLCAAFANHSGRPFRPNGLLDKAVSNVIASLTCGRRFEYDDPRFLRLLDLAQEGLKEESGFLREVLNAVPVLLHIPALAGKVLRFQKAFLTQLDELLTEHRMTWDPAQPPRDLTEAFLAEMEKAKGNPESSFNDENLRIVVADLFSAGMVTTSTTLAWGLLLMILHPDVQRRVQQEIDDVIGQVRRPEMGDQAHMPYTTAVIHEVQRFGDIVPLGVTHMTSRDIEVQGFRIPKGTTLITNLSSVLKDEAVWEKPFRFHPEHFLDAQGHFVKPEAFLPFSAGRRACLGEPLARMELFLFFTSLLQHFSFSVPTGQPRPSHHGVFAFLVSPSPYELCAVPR
Sequence of CYP 2C9 (P11712 whole entry): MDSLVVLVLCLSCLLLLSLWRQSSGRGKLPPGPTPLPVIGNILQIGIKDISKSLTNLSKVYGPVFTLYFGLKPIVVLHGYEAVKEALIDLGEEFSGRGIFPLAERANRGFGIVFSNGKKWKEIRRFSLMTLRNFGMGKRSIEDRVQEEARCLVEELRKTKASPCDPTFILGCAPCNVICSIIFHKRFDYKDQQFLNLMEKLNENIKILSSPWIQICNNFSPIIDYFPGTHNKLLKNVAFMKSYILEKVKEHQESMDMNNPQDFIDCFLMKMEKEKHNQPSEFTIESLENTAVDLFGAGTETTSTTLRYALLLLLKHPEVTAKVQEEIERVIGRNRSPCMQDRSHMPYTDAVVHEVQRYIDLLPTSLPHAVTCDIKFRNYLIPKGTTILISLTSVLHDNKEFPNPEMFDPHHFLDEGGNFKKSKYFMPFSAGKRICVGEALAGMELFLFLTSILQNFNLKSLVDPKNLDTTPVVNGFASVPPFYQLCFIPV
Sequence of CYP3A4 (P08684 2-503 limits assumed): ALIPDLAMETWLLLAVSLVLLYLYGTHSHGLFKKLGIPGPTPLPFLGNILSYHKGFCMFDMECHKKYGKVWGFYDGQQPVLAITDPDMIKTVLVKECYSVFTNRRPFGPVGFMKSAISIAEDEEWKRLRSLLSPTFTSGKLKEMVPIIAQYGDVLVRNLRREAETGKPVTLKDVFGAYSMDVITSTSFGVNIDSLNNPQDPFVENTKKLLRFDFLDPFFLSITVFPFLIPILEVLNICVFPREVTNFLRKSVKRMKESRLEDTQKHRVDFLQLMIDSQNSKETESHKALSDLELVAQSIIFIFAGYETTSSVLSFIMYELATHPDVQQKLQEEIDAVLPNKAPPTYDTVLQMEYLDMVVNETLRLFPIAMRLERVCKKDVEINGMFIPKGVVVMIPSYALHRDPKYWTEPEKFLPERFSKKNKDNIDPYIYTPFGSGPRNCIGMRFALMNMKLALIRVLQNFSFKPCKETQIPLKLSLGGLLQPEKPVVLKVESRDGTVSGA

COc1cc(CNC(=O)CCCC/C=C/C(C)C)ccc1O [Cap, capsaicin]
IC50 [1]: > 100 µM | IC50 [2]: 68 µM | IC50 [3]: 26 µM and 24 µM | IC50 [4, 18]: 3.1 µM and 3.5 µM | IC50 ([4]; mean IC50 CYP1A2, mean value given in text, HLM): 3.3 µM | IC50 [5]: > 100 µM | IC50 [6]: 3.7 µM | IC50 [6, 19]: 4.5 µM | IC50 ([6]; mean IC50 CYP2C9, mean value given in text, HLM): 4.1 µM | IC50 ([7]; mean IC50 CYP3A4, midazolam as substrate): 16 µM | IC50 ([7]; mean IC50 CYP3A4, testosterone as substrate): 9.7 µM | IC50 [8, 20]: 6.3 µM and 5.9 µM | IC50 ([8]; mean IC50 CYP2C8, mean value given in text, HLM): 6.1 µM

C=CCc1ccc(O)c(OC)c1 [Eu, eugenol]
Tmax of Nos ([9]; Nos alone or co-dosed with the named dietary agent, single oral dose): remained unaffected

COc1ccc2c(c1OC)C(=O)O[C@@H]2[C@H]1c2c(cc3c(c2OC)OCO3)CCN1C [Nos, Noscapine]
IC50 [1]: > 100 µM | AUC(0-t) [9, 21]: 1920 ng·h/mL | Tmax [9, 21]: 4.8 min | half-life [9, 21]: < 60 min | Intrinsic Clearance DLM [10]: 1.9 mL/min/g liver | clinical chemistry parameters vs vehicle-treated mice [11]: did not affect | Intrinsic Clearance MLM [12]: 6.4 mL/min/g liver | IC50 [2]: > 100 µM | IC50 [3]: > 100 µM | AUClast ([13]; Day 1, noscapine, oral gavage Nos 50 mg/kg bw, Cap/Pip 5 mg/kg bw, CD-1 mice): 1023.76 ng·h/mL | Cmax ([13]; Day 1, noscapine, oral gavage Nos 50 mg/kg bw, Cap/Pip 5 mg/kg bw, CD-1 mice, mean ± SD): 3087.37 ± 1232.27 ng/mL | AUClast ([13]; Day 7, noscapine, daily oral gavage Nos 50 mg/kg bw, Cap/Pip 5 mg/kg bw, CD-1 mice): 507.74 ng·h/mL | Cmax ([13]; Day 7, noscapine, daily oral gavage Nos 50 mg/kg bw, Cap/Pip 5 mg/kg bw, CD-1 mice, mean ± SD): 684.04 ± 31.77 ng/mL | Tmax at 1 day [13, 21]: 10.2 min | Tmax at 7 days [13, 21]: 15 min | AUC(0-t) ([13]; male, CD-1, mouse, plasma, po, 50 mg/kg, Day 1, noscapine, oral gavage Nos 50 mg/kg bw, Cap/Pip 5 mg/kg bw, CD-1 mice): 1020 ng·h/mL | AUC(0-t) ([13]; male, CD-1, mouse, plasma, po, 50 mg/kg, Day 7, noscapine, daily oral gavage Nos 50 mg/kg bw, Cap/Pip 5 mg/kg bw, CD-1 mice): 508 ng·h/mL | Cmax at 1 day ([13]; male, CD-1, mouse, plasma, po, 50 mg/kg, Cmax, Day 1, noscapine, oral gavage Nos 50 mg/kg bw, Cap/Pip 5 mg/kg bw, CD-1 mice, mean ± SD): 3090 ng/mL | Cmax at 7 days ([13]; male, CD-1, mouse, plasma, po, 50 mg/kg, Cmax, Day 7, noscapine, daily oral gavage Nos 50 mg/kg bw, Cap/Pip 5 mg/kg bw, CD-1 mice, mean ± SD): 684 ng/mL | decrease in exposure of Nos on day 7 compared to day 1 ([13]; repeated oral dosing for seven days): half | bioavailability ([14]; mice, ref Aneja et al., 2007): around 32% | Oral bioavailability ([14]; mouse, reported, no reference given): 30% | half-life ([14]; ref Aneja et al., 2007): < 120 min | IC50 [4, 18]: > 100 µM | Intrinsic Clearance RLM [15]: 4.0 mL/min/g liver | IC50 [5]: > 100 µM | IC50 [6, 19]: 18 µM and 24 µM | Intrinsic Clearance HLM [16]: 1.8 mL/min/g liver | IC50 [8, 20]: 10 µM and 8.4 µM

O=C(/C=C/C=C/c1ccc2c(c1)OCO2)N1CCCCC1 [Pip, piperine]
IC50 [1]: > 100 µM | inhibitory effect on the rate of metabolism of Nos [17]: did not reveal significant inhibitory effects | IC50 [2]: > 100 µM | IC50 [3]: 87 µM and 90 µM | IC50 [4, 18]: 35 µM and 38 µM | IC50 [5]: > 100 µM | IC50 [6]: 54 µM | IC50 [8, 20]: 84 µM and 78 µM
